Data from the supplement of paper PMC10307832.

What was measured:
Experiment in all cases: relative viability (nuclei count vs DMSO), 5 days (fraction); higher = more cells survive
201T = test system: 201T
In short: (§1)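 Dosing by pin tool came one day after lung cancer cell lines were seeded in 1536-well plates, using either one drug or a fixed anchor-drug dose plus five library-drug doses (not always all listed) in √10 steps. After 5 days, nuclei were counted on 4× images. Relative viability is treated-well nuclei count divided by vehicle-well nuclei count, and values are medians of duplicate plates.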

ABC-1 = test system: ABC-1
In short: as §1

BEN = test system: BEN
In short: as §1

CAL-12T = test system: CAL-12T
In short: as §1

COR-L 105 = test system: COR-L 105
In short: as §1

COR-L23 = test system: COR-L23
In short: as §1

EKVX = test system: EKVX
In short: as §1

HARA = test system: HARA
In short: as §1

HCC-366 = test system: HCC-366
In short: as §1

LK-2 = test system: LK-2
In short: as §1

LU99A = test system: LU99A
In short: as §1

NCI-H1437 = test system: NCI-H1437
In short: as §1

NCI-H1650 = test system: NCI-H1650
In short: as §1

NCI-H1666 = test system: NCI-H1666
In short: as §1

NCI-H2009 = test system: NCI-H2009
In short: as §1

NCI-H2170 = test system: NCI-H2170
In short: as §1

NCI-H3122 = test system: NCI-H3122
In short: as §1

NCI-H661 = test system: NCI-H661
In short: as §1

NCI-H727 = test system: NCI-H727
In short: as §1

NCI-H838 = test system: NCI-H838
In short: as §1

PC-14 = test system: PC-14
In short: as §1

NC(=O)Nc1cc(-c2cccc(F)c2)sc1C(=O)N[C@H]1CCCNC1 [AZD7762] + CS(=O)(=O)CCNCc1ccc(-c2ccc3ncnc(Nc4ccc(OCc5cccc(F)c5)c(Cl)c4)c3c2)o1 [Lapatinib] (partner 2 µM)
relative viability (201T; first compound 0.01 µM): 1.03 | relative viability (201T; first compound 0.03162 µM): 0.99 | relative viability (201T; first compound 0.1 µM): 1.03 | relative viability (201T; first compound 0.3162 µM): 1.15 | relative viability (201T; first compound 1 µM): 1.15 | relative viability (ABC-1; first compound 0.01 µM): 1.46 | relative viability (ABC-1; first compound 0.03162 µM): 1.33 | relative viability (ABC-1; first compound 0.1 µM): 0.983 | relative viability (ABC-1; first compound 0.3162 µM): 1.2 | relative viability (ABC-1; first compound 1 µM): 0.981 | relative viability (BEN; first compound 0.01 µM): 0.788 | relative viability (BEN; first compound 0.03162 µM): 0.623 | relative viability (BEN; first compound 0.1 µM): 0.566 | relative viability (BEN; first compound 0.3162 µM): 0.833 | relative viability (BEN; first compound 1 µM): 0.488 | relative viability (CAL-12T; first compound 0.01 µM): 0.781 | relative viability (CAL-12T; first compound 0.03162 µM): 0.649 | relative viability (CAL-12T; first compound 0.1 µM): 0.649 | relative viability (CAL-12T; first compound 0.3162 µM): 0.703 | relative viability (CAL-12T; first compound 1 µM): 0.314 | relative viability (COR-L 105; first compound 0.01 µM): 0.413 | relative viability (COR-L 105; first compound 0.03162 µM): 0.353 | relative viability (COR-L 105; first compound 0.1 µM): 0.254 | relative viability (COR-L 105; first compound 0.3162 µM): 0.332 | relative viability (COR-L 105; first compound 1 µM): 0.282 | relative viability (COR-L23; first compound 0.01 µM): 1.16 | relative viability (COR-L23; first compound 0.03162 µM): 1.06 | relative viability (COR-L23; first compound 0.1 µM): 0.953 | relative viability (COR-L23; first compound 0.3162 µM): 0.729 | relative viability (COR-L23; first compound 1 µM): 0.131 | relative viability (EKVX; first compound 0.01 µM): 0.204 | relative viability (EKVX; first compound 0.03162 µM): 0.232 | relative viability (EKVX; first compound 0.1 µM): 0.206 | relative viability (EKVX; first compound 0.3162 µM): 0.253 | relative viability (EKVX; first compound 1 µM): 0.166 | relative viability (HARA; first compound 0.01 µM): 0.851 | relative viability (HARA; first compound 0.03162 µM): 0.763 | relative viability (HARA; first compound 0.1 µM): 0.759 | relative viability (HARA; first compound 0.3162 µM): 0.781 | relative viability (HARA; first compound 1 µM): 0.256 | relative viability (HCC-366; first compound 0.01 µM): 0.991 | relative viability (HCC-366; first compound 0.03162 µM): 1.12 | relative viability (HCC-366; first compound 0.1 µM): 0.879 | relative viability (HCC-366; first compound 0.3162 µM): 0.375 | relative viability (HCC-366; first compound 1 µM): 0.0771 | relative viability (LK-2; first compound 0.01 µM): 1.02 | relative viability (LK-2; first compound 0.03162 µM): 1.03 | relative viability (LK-2; first compound 0.1 µM): 0.759 | relative viability (LK-2; first compound 0.3162 µM): 0.828 | relative viability (LK-2; first compound 1 µM): 0.573 | relative viability (LU99A; first compound 0.01 µM): 0.954 | relative viability (LU99A; first compound 0.03162 µM): 1.1 | relative viability (LU99A; first compound 0.1 µM): 0.952 | relative viability (LU99A; first compound 0.3162 µM): 0.789 | relative viability (LU99A; first compound 1 µM): 0.416 | relative viability (NCI-H1437; first compound 0.01 µM): 0.809 | relative viability (NCI-H1437; first compound 0.03162 µM): 0.647 | relative viability (NCI-H1437; first compound 0.1 µM): 0.875 | relative viability (NCI-H1437; first compound 0.3162 µM): 0.841 | relative viability (NCI-H1437; first compound 1 µM): 0.526 | relative viability (NCI-H1650; first compound 0.01 µM): 0.747 | relative viability (NCI-H1650; first compound 0.03162 µM): 0.852 | relative viability (NCI-H1650; first compound 0.1 µM): 0.896 | relative viability (NCI-H1650; first compound 0.3162 µM): 0.434 | relative viability (NCI-H1650; first compound 1 µM): 0.167 | relative viability (NCI-H1666; first compound 0.01 µM): 0.671 | relative viability (NCI-H1666; first compound 0.03162 µM): 0.821 | relative viability (NCI-H1666; first compound 0.1 µM): 0.73 | relative viability (NCI-H1666; first compound 0.3162 µM): 0.629 | relative viability (NCI-H1666; first compound 1 µM): 0.708 | relative viability (NCI-H2009; first compound 0.01 µM): 1.25 | relative viability (NCI-H2009; first compound 0.03162 µM): 1.04 | relative viability (NCI-H2009; first compound 0.1 µM): 1 | relative viability (NCI-H2009; first compound 0.3162 µM): 0.896 | relative viability (NCI-H2009; first compound 1 µM): 0.518 | relative viability (NCI-H2170; first compound 0.01 µM): 0.289 | relative viability (NCI-H2170; first compound 0.03162 µM): 0.256 | relative viability (NCI-H2170; first compound 0.1 µM): 0.26 | relative viability (NCI-H2170; first compound 0.3162 µM): 0.263 | relative viability (NCI-H2170; first compound 1 µM): 0.257 | relative viability (NCI-H3122; first compound 0.01 µM): 0.978 | relative viability (NCI-H3122; first compound 0.03162 µM): 1.06 | relative viability (NCI-H3122; first compound 0.1 µM): 1.03 | relative viability (NCI-H3122; first compound 0.3162 µM): 0.907 | relative viability (NCI-H3122; first compound 1 µM): 1.09 | relative viability (NCI-H661; first compound 0.01 µM): 0.6 | relative viability (NCI-H661; first compound 0.03162 µM): 0.546 | relative viability (NCI-H661; first compound 0.1 µM): 0.512 | relative viability (NCI-H661; first compound 0.3162 µM): 0.405 | relative viability (NCI-H661; first compound 1 µM): 0.28 | relative viability (NCI-H727; first compound 0.01 µM): 0.891 | relative viability (NCI-H727; first compound 0.03162 µM): 0.985 | relative viability (NCI-H727; first compound 0.1 µM): 0.578 | relative viability (NCI-H727; first compound 0.3162 µM): 0.36 | relative viability (NCI-H727; first compound 1 µM): 0.271 | relative viability (NCI-H838; first compound 0.01 µM): 0.917 | relative viability (NCI-H838; first compound 0.03162 µM): 0.908 | relative viability (NCI-H838; first compound 0.1 µM): 1.07 | relative viability (NCI-H838; first compound 0.3162 µM): 0.903 | relative viability (NCI-H838; first compound 1 µM): 0.268 | relative viability (PC-14; first compound 0.01 µM): 0.345 | relative viability (PC-14; first compound 0.03162 µM): 0.305 | relative viability (PC-14; first compound 0.1 µM): 0.348 | relative viability (PC-14; first compound 0.3162 µM): 0.256 | relative viability (PC-14; first compound 1 µM): 0.299
